Reference: patent US8119671B2, “Isoxazoline-substituted benzamide compound and pest control agent” (Nissan Chemical Industries, Ltd., priority 2007, dated 2012)

Key:
Assay type in all cases: in vivo
[1] = test system: American dog ticks (Dermacentor variabilis); assay: Test Example 16: Mortality Test for American Dog Tick; conditions: 96 h, thin film in petri dishes, 0.1 μg/cm^2 (acetone solution 100 ppm), protonymphs, after 4 days
Experimental: To the bottom surfaces and the side surfaces of two petri dishes having an inner diameter of 5.3 cm, 400 μL of an acetone solution in which 4 mg of a compound of the present invention was dissolved in 40 mL of acetone (concentration: 100 ppm) was applied and the acetone was volatilized to form a thin film of the compound of the present invention on the inner walls of the petri dishes. The inner wall of the used petri dish has an area of 40 cm^2, so that the amount of the applied drug is 0.1 μg/cm^2. In one petri dish, 10 American dog ticks (Dermacentor variabilis) protonymphs (male and female were mixed) were released and the petri dish was capped with the other petri dish. The seam part of the two petri dishes was sealed with a tape so that the protonymphs could not flee and the two petri dishes were stored in a thermostat room of 25° C. The number of killed protonymphes after 4 days was measured and the mortality was calculated from the same calculation formula as that in Test Example 1. Here, the test was carried out on the single sample.

Liriomyza trifolii = assay: Test Example 13: Mortality Test for Liriomyza trifolii; conditions: 144 h, drug solution 500 ppm, kidney bean leaf with eggs immersed, after 6 days
Experimental: (§1) A 10% emulsifiable concentrate of the compound of the present invention (depending on the type of the compound, a 10% wettable powder was subjected to the test) was diluted with water containing a spreader to prepare a drug solution in a concentration of 500 ppm. In this drug solution, a leaf of kidney bean on which Liriomyza trifolii laid eggs (10 eggs/leaf) and which was cut out to a diameter of 7 cm was immersed for about 10 seconds and was air-dried and then laid on a wet filtration paper laid in a styrol cup having an inner diameter of 7 cm. The styrol cup was capped and stored in a thermostat room of 25° C. The number of killed larvae after 6 days was measured and the mortality was calculated from the same calculation formula as that in Test Example 1. Here, the test was carried out with two replications.

Helicoverpa armigera = assay: Test Example 4: Mortality Test for Helicoverpa armigera; conditions: 144 h
Experimental: as §1, with “100” for “500”, “canarium album” for “kidney bean on which Liriomyza trifolii laid eggs (10 eggs/leaf) and which was cut out to a diameter of 7 cm”, “put into” for “laid on”, “petri dish. In the petri dish, one 2 instar larva” for “wet filtration paper laid in a styrol cup having an inner diameter”, “Helicoverpa armigera per petri dish was released and the petri dish” for “7 cm. The styrol cup”, “2” for “two”

[2] = test system: Frankliniella occidentalis; assay: Test Example 18: Mortality Test for Frankliniella occidentalis (Comparative Test 2); conditions: 48 h
Experimental: In a styrol cup having an inner diameter of 7 cm, a wet filtration paper was laid, and on the paper, a leaf of kidney bean cut out so as to have the same diameter as the inner diameter of the cup was laid, followed by inoculating ten 1 instar larvae of Frankliniella occidentalis per leaf to the leaf. 10% emulsifiable concentrates of the compound of the present invention and a comparative compound were diluted with water containing a spreader to prepare drug solutions in a predetermined concentration. The drug solutions were dusted using a rotary dusting tower in an amount of 2.5 mL per styrol cup, and the cup was capped and stored in a thermostat room of 25° C. The number of killed larvae after 2 days was measured and the mortality was calculated from the following calculation formula: Mortality (%)=(number of killed larvae/number of released larvae)×100. Here, the test was carried out with two replications.

Thrips palmi = assay: Test Example 6: Mortality Test for Thrips palmi; conditions: 48 h
Experimental: In a styrol cup having an inner diameter of 7 cm, a wet filtration paper was laid, and on the paper, a leaf of kidney bean cut out so as to have the same diameter as the inner diameter of the cup was laid, followed by inoculating 10 imagines of Thrips palmi per leaf to the leaf. A 10% emulsifiable concentrate of the compound of the present invention (depending on the type of the compound, a 10% wettable powder was subjected to the test) was diluted with water containing a spreader to prepare a drug solution in a concentration of 100 ppm. The drug solution was dusted using a rotary dusting tower in an amount of 2.5 mL per one styrol cup and the cup was capped and stored in a thermostat room of 25° C. The number of killed imagines after 2 days was measured and the mortality was calculated from the same calculation formula as that in Test Example 1. Here, the test was carried out with two replications.

Myzus persicae = assay: Test Example 10: Mortality Test for Myzus persicae; conditions: 144 h
Experimental: In a glass petri dish having an inner diameter of 3 cm, a wet absorbent cotton was laid, and on the cotton, a leaf of canarium album cut out so as to have the same diameter as the inner diameter of the petri dish was laid, followed by releasing 4 apterous imagines of Myzus persicae on the leaf. After one day, 10% emulsifiable concentrate of the compound of the present invention (depending on the type of the compound, a 10% wettable powder was subjected to the test) was diluted with water containing a spreader to prepare a drug solution in a concentration of 500 ppm. The drug solution was dusted using a rotary dusting tower (2.5 mg/cm^2) and the petri dish was capped and stored in a thermostat room of 25° C. The number of killed imagines after 6 days was measured and the mortality was calculated from the same calculation formula as that in Test Example 1. Here, the test was carried out with two replications.

Nilaparvata lugens = assay: Test Example 8: Mortality Test for Nilaparvata lugens; conditions: 144 h, drug solution 500 ppm, Oryza sativa leaf sheath immersed, 2 instar larvae, after 6 days
Experimental: as §1, with “leaf sheath” for “leaf”, “Oryza sativa” for “kidney bean on which Liriomyza trifolii laid eggs (10 eggs/leaf) and which was cut out to a diameter of 7 cm”, “put into” for “laid on”, “test tube. In the test tube, five 2 instar larvae” for “wet filtration paper laid in a styrol cup having an inner diameter”, “Nilaparvata lugens per test tube were released and the test tube” for “7 cm. The styrol cup”, “capped with a sponge” for “capped”

Structure (SMILES): Cc1cc(C2=NOC(c3cc(Cl)cc(Cl)c3)(C(F)(F)F)C2)ccc1C(=O)NC1(c2ccccn2)CC1 (centres unmarked) [No. 1-007, 4-[5-(3,5-Dichlorophenyl)-5-trifluoromethyl-4,5-dihydroisoxazole-3-yl]-2-methyl-N-[1-(2-pyridyl)cyclopropyl]benzamide]
- mortality at 100 ppm, 0.1 µg/cm2 [1]: ≥ 80%
- mortality at 500 ppm (Liriomyza trifolii): ≥ 80%
- mortality at 100 ppm (Helicoverpa armigera): ≥ 80%
- mortality at 0.1 ppm [2]: 0%
- mortality at 0.3 ppm [2]: 0%
- mortality at 1 ppm [2]: 38.1%
- mortality at 3.3 ppm [2]: 96.3%
- mortality at 10 ppm [2]: 100%
- mortality at 100 ppm (Thrips palmi): ≥ 80%
- mortality at 500 ppm (Myzus persicae): ≥ 80%
- mortality at 500 ppm (Nilaparvata lugens): ≥ 80%
